Measurements taken from patent publication US20250250261A1, “NOVEL SUBSTITUTED FLUORINATED VINYL-N-PROPYL-PYRROLIDINE COMPOUNDS, PROCESSES FOR THEIR PREPARATION AND THERAPEUTIC USES THEREOF” (SANOFI, priority 2022, published 2025).

These compounds were tested against T1, ERα (Homo sapiens, UniProt P03372) (assay: Estrogen receptor degradation activity: breast cancer cell ERα in cell western assay (MCF7 cells)). Details: 4 hours, % of ERα levels decrease relative to fulvestrant (0.1 μM) and DMSO.
T1 construct: host or cells: MCF7
T1 sequence (P03372 1-595): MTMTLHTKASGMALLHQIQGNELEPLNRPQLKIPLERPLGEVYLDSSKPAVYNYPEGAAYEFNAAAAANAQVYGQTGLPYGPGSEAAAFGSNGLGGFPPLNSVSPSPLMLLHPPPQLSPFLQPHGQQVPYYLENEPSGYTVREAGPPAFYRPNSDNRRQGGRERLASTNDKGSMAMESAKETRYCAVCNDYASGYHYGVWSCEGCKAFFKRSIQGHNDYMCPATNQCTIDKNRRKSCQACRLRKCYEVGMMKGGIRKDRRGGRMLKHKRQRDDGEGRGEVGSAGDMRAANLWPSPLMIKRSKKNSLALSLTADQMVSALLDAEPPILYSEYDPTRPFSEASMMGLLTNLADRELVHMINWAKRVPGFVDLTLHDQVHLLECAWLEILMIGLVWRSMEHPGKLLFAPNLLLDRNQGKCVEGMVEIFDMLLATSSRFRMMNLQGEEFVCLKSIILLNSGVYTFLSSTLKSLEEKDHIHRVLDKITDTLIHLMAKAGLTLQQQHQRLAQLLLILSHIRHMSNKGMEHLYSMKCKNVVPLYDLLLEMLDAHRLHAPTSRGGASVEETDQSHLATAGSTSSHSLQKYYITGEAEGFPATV
Type: cell-based
Experimental: Test: Estrogen Receptor Degradation Activity
Said test involves measuring the in vitro degradation activity of the compounds of the Table 1a.
The measurements of the degradation activities were made using a breast cancer cell ERα in cell western assay as described hereunder.
MCF7 cells (ATCC) were seeded in 384 wells microplate (collagen coated) at a concentration of 10000 cells/30 μL per well in red phenol free MEM alpha medium (invitrogen) containing 5% charcoal dextran striped FBS. The following day, 9 points serial 1:5 dilution of each compound was added to the cells in 2.5 μL at final concentrations ranging from 0.3-0.0000018 μM (in table 2), or 0.1 μM for fulvestrant (using as positive control). At 4 hours post compound addition the cells were fixed by adding 25 μL of formalin (final concentration 5% formalin containing 0.1% triton) for 10 minutes at room temperature and then washed twice with PBS. Then, 50 μL of LI-COR blocking buffer containing 0.1% Triton was added to plate for 30 minutes at room temperature. LI-COR blocking buffer was removed and cells were incubated overnight at cold room with 50 μL anti-ER rabbit monoclonal antibody (Thermo scientific MA1-39540) diluted at 1:1000 in LI-COR blocking buffer containing 0.1% tween-20. Wells which were treated with blocking buffer but no antibody were used as background control. Wells were washed twice with PBS (0.1% tween-20) and incubated at 37° C. for 60 minutes in LI-COR (0.1% tween-20) containing goat anti-rabbit antibody Alexa 488 (1:1000) and Syto-64 a DNA dye (2 μM final concentration). Cells were then washed 3 times in PBS and scanned in ACUMEN explorer (TTP-Labtech). Integrated intensities in the green fluorescence and red fluorescence were measured to determine the levels of ERα and DNA respectively.
The degradation activity with respect to estrogen receptors in this test is given by the concentration which degrades 50% of the estrogen receptor (or IC50) in nM.
The % of ERα levels decrease were determined as follows: % inhibition=100*(1−(sample−fulvestrant:DMSO−fulvestrant)).

| Structure (SMILES) | % Degradation At 0.3 μM [%] |
| --- | --- |
| Cl.O=C(O)c1ccc2c(c1)CCCC(c1ccc(Cl)cc1Cl)=C2c1ccc(/C=C2/CCN(CCCF)C2)cc1 [Compound 1, (Z)-8-(2,4-dichlorophenyl)-9-(4-((1-(3,3-fluoropropyl)pyrrolidin-3-ylidene)methyl)phenyl)-6,7-dihydro-5H-benzo[7]annulene-3-carboxylic acid, hydrochloride] | 96 |
| O=C(O)c1ccc2c(c1)CCCC(c1ccc(F)cc1Cl)=C2c1ccc(/C=C2/CCN(CCCF)C2)cc1 [Compound 2, (Z)-8-(2-chloro-4-fluorophenyl)-9-(4-((1-(3,3-fluoropropyl)pyrrolidin-3-ylidene)methyl)phenyl)-6,7-dihydro-5H-benzo[7]annulene-3-carboxylic acid] | 91 |
| Cl.O=C(O)c1ccc2c(c1)OCCC(c1ccc(Cl)cc1Cl)=C2c1ccc(/C=C2/CCN(CCCF)C2)cc1 [Compound 3, (Z)-4-(2,4-dichlorophenyl)-5-(4-((1-(3-fluoropropyl)pyrrolidin-3-ylidene)methyl)phenyl)-2,3-dihydrobenzo[b]oxepine-8-carboxylic acid hydrochloride] | 95 |
| O=C(O)c1ccc2c(c1)CCCC(c1ccc(Cl)cc1Cl)=C2c1ccc(C=C2CCN(CCC(F)F)C2)cc1 [Compound 4, (Z)-8-(2,4-dichlorophenyl)-9-(4-((1-(3,3-difluoropropyl)pyrrolidin-3-ylidene)methyl)phenyl)-6,7-dihydro-5H-benzo[7]annulene-3-carboxylic acid] | 73 |
| Cl.O=C(O)c1ccc2c(c1)CCCC(c1ccc(F)cc1F)=C2c1ccc(/C=C2/CCN(CCC(F)F)C2)cc1 [Compound 5, (Z)-8-(2,4-difluorophenyl)-9-(4-((1-(3,3-difluoropropyl)pyrrolidin-3-ylidene)methyl)phenyl)-6,7-dihydro-5H-benzo[7]annulene-3-carboxylic acid hydrochloride] | 88 |
| Cc1cc(F)ccc1C1=C(c2ccc(/C=C3/CCN(CCCF)C3)cc2)c2ccc(C(=O)O)cc2CCC1 [Compound 6, (Z)-8-(4-fluoro-2-methylphenyl)-9-(4-((1-(3-fluoropropyl)pyrrolidin-3-ylidene)methyl)phenyl)-6,7-dihydro-5H-benzo[7]annulene-3-carboxylic acid] | 96 |
| FCCCN1CC/C(=C/c2ccc(C3=C(c4ccccc4Cl)CCCc4ccccc43)cc2)C1 [Compound 7, (Z)-3-(4-(8-(2-chlorophenyl)-6,7-dihydro-5H-benzo[7]annulen-9-yl)benzylidene)-1-(3-fluoropropyl)pyrrolidine] | 82 |
| O=C(O)c1ccc2c(c1)CCCC(c1ccc(F)cc1C(F)(F)F)=C2c1ccc(/C=C2/CCN(CCCF)C2)cc1 [Compound 8, (Z)-8-(4-fluoro-2-(trifluoromethyl)phenyl)-9-(4-((1-(3-fluoropropyl)pyrrolidin-3-ylidene)methyl)phenyl)-6,7-dihydro-5H-benzo[7]annulene-3-carboxylic acid] | 90 |
| O=C(O)c1ccc2c(c1)CCCC(c1ccc(F)cc1F)=C2c1ccc(/C=C2/CCN(CCCF)C2)cc1 [Compound 9, (Z)-8-(2,4-difluorophenyl)-9-(4-((1-(3,3-fluoropropyl)pyrrolidin-3-ylidene)methyl)phenyl)-6,7-dihydro-5H-benzo[7]annulene-3-carboxylic] | 93 |
| Cc1c(Cl)cccc1C1=C(c2ccc(/C=C3/CCN(CCCF)C3)cc2)c2ccc(C(=O)O)cc2CCC1 [Compound 10, (Z)-8-(3-chloro-2-methylphenyl)-9-(4-((1-(3-fluoropropyl)pyrrolidin-3-ylidene)methyl)phenyl)-6,7-dihydro-5H-benzo[7]annulene-3-carboxylic acid] | 92 |
| Cc1cccc(C2=C(c3ccc(/C=C4/CCN(CCCF)C4)cc3)c3ccc(C(=O)O)cc3CCC2)c1C(F)(F)F [Compound 11, (Z)-9-(4-((1-(3-fluoropropyl)pyrrolidin-3-ylidene)methyl)phenyl)-8-(3-methyl-2-(trifluoromethyl)phenyl)-6,7-dihydro-5H-benzo[7]annulene-3-carboxylic acid] | 93 |
| Cc1cccc(C2=C(c3ccc(/C=C4/CCN(CCC(F)F)C4)cc3)c3ccc(C(=O)O)cc3CCC2)c1C(F)(F)F [Compound 12, (Z)-9-(4-((1-(3,3-difluoropropyl)pyrrolidin-3-ylidene)methyl)phenyl)-8-(3-methyl-2-(trifluoromethyl)phenyl)-6,7-dihydro-5H-benzo[7]annulene-3-carboxylic acid] | 85 |
| Cc1c(Cl)cccc1C1=C(c2ccc(/C=C3/CCN(CCC(F)F)C3)cc2)c2ccc(C(=O)O)cc2CCC1 [Compound 13, (Z)-8-(3-chloro-2-methylphenyl)-9-(4-((1-(3,3-difluoropropyl)pyrrolidin-3-ylidene)methyl)phenyl)-6,7-dihydro-5H-benzo[7]annulene-3-carboxylic acid] | 86 |
| Cc1c(C2=C(c3ccc(/C=C4/CCN(CCCF)C4)cc3)c3ccc(C(=O)O)cc3CCC2)cccc1C(F)(F)F [Compound 14, (Z)-9-(4-((1-(3-fluoropropyl)pyrrolidin-3-ylidene)methyl)phenyl)-8-(2-methyl-3-(trifluoromethyl)phenyl)-6,7-dihydro-5H-benzo[7]annulene-3-carboxylic acid] | 92 |
| Cc1cc(F)ccc1C1=C(c2ccc(/C=C3/CCN(CCC(F)F)C3)cc2)c2ccc(C(=O)O)cc2CCC1 [Compound 15, (Z)-9-(4-((1-(3,3-difluoropropyl)pyrrolidin-3-ylidene)methyl)phenyl)-8-(4-fluoro-2-methylphenyl)-6,7-dihydro-5H-benzo[7]annulene-3-carboxylic acid] | 88 |
| Cl.Oc1ccc2c(c1)CCCC(c1ccc(Cl)cc1Cl)=C2c1ccc(/C=C2/CCN(CCCF)C2)cc1 [Compound 16, (Z)-8-(2,4-dichlorophenyl)-9-(4-((1-(3-fluoropropyl)pyrrolidin-3-ylidene)methyl)phenyl)-6,7-dihydro-5H-benzo[7]annulen-3-ol hydrochloride] | 76 |
| Oc1ccc2c(c1)CCCC(c1ccc(Cl)cc1Cl)=C2c1ccc(/C=C2/CCN(CCC(F)F)C2)cc1 [Compound 17, (Z)-8-(2,4-dichlorophenyl)-9-(4-((1-(3-difluoropropyl)pyrrolidin-3-ylidene)methyl)phenyl)-6,7-dihydro-5H-benzo[7]annulen-3-ol] | 61 |
| O=C(O)c1ccc2c(c1)CCCC(c1ccc(F)cc1C(F)(F)F)=C2c1ccc(/C=C2/CCN(CCC(F)F)C2)cc1 [Compound 18, (Z)-9-(4-((1-(3,3-difluoropropyl)pyrrolidin-3-ylidene)methyl)phenyl)-8-(4-fluoro-2-(trifluoromethyl)phenyl)-6,7-dihydro-5H-benzo[7]annulene-3-carboxylic acid] | 86 |
| Cc1c(C2=C(c3ccc(/C=C4/CCN(CCC(F)F)C4)cc3)c3ccc(C(=O)O)cc3CCC2)cccc1C(F)(F)F [Compound 19, (Z)-9-(4-((1-(3,3-difluoropropyl)pyrrolidin-3-ylidene)methyl)phenyl)-8-(2-methyl-3-(trifluoromethyl)phenyl)-6,7-dihydro-5H-benzo[7]annulene-3-carboxylic acid] | 87 |
| Cc1cc(F)cc(C)c1C1=C(c2ccc(/C=C3/CCN(CCC(F)F)C3)cc2)c2ccc(C(=O)O)cc2CCC1 [Compound 20] | 85 |
